Measurements: publication PMC4492750, “The discovery of a selective and potent A2a agonist with extended lung retention” (Pharmacology Research & Perspectives, 2015)
pEC50, pIC50: −log10 of the molar value.

What was measured:
[1] = Lipophilicity (LogD), shake flask; assay type: physicochemical; conditions: 1-octanol / phosphate buffer, octanol-water, phosphate buffer pH 7.4
Description: (§1) • Human A2a and A2b receptor pharmacology: Chinese hamster ovary CHO-K1 cells stably expressing human A2a and A2b receptors were used to determine substances agonistic potency and intrinsic activity. […] The signal corresponding to adenosine at 100 μmol/L was used to define 100% intrinsic activity. • Human A3 receptor pharmacology: A3 receptor Gi coupling was measured by GTPγ ^35[S] filter assay at serial dilutions of compound using membranes from Perkin-Elmer. The signal corresponding to the maximal response of NECA at 100 μmol/L was set to 100% intrinsic activity. • Lipopolysaccharide (LPS)-induced TNFα production in primary human peripheral blood mononuclear cells (hTNFα PBMC) and rat mononuclears (rTNFα splenocytes): Human PBMC and rat mononuclear spleen cells were incubated with serial dilutions of compound and stimulated with LPS.
The octanol-water partition coefficient (LogD) was measured using the shake flask method. 600µL of 1-octanol was added to a vial with 6µL of 10mM DMSO-solution of the test compound. 600µL of 10mM sodium phosphate buffer adjusted to pH 7.4 was added and equilibrium was performed by vigorous shaking for ten minutes with an Eppendorf mixer. The phases were separated by centrifugation. The samples were analysed by HPLC with UV-detection at 254nm.

A2a = A2a (Homo sapiens, UniProt P29274); assay: Selectivity panel of 98 targets in binding assays (Ricerca): A2a; parameters: Ricerca (contract panel); conditions: 10 μmol/L of compound; data on AstraZeneca file
Description: The medicinal chemistry synthetic optimization focused on the position C2 and N6 (Fig.2) with the aim to discover a compound with high A2a potency, high selectivity, low lipophilicity (logD), and high solubility. […] Selectivity of compound 2 was tested across 98 targets in binding assays (www.ricerca.com). The only identified significant hits (i.e., >50% effect at 10 μmol/L of compound 2) were A2a (∼100%) and A3 (∼84%) data on AstraZeneca file.

[2] = system: LPS-induced TNFα production in rat splenocytes; assay: LPS-induced TNFα production in rat mononuclear spleen cells (rTNFα splenocytes); assay type: cell-based; conditions: Splenocyte
Description: as §1
Procedures and assays were run in R10 buffer (RPMI 1640 Medium supplemented with GlutaMAX™ and HEPES (GIBCO-BRL), 10% fetal calf serum, penicillin and streptomycin (each 5000IU/ml)). Human PBMC were purified from heparinised blood by Ficoll separation (Ficoll, Amersham Pharmacia Biotech AB, Cat: 17-1440-03, Lot: 312170) and rat mononuclear cells were collected after rat spleen perfusion. Both cell preparations were followed by hypotonic lysis of residual erythrocytes. Serial dilutions of compounds were pre-incubated with 200 000 cells/well (96-well plate) for 45min in 37 °C (190µl). Cells were stimulated by 10µl LPS (final concentration 0.5ng/ml human and 150ng/ml rat; SIGMA Cat: L-4516, Lot: 104K4036) for 18h at 37 °C. TNFα release was measured by ELISA (^TmR&D Systems plates) according to the manufacturer’s instructions in cell free supernatant.

human A2b receptors = target: T1, human A2b receptors (Homo sapiens, UniProt P29275); assay: Human A2b receptor pharmacology: cAMP Alphascreen in CHO-K1 cells; assay type: cell-based; conditions: average (SD)
T1 construct: expressed in transfected cells; host or cells: CHO-K1
T1 sequence (P29275 1-332): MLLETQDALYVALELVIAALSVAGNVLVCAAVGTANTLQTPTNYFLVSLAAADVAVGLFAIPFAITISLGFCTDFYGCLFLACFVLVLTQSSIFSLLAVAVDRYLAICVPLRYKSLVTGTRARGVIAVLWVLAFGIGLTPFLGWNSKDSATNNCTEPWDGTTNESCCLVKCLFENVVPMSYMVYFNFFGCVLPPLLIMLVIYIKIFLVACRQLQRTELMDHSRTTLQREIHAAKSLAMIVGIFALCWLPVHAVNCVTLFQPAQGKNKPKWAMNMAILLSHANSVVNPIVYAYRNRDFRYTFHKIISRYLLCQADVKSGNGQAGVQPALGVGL
Description: as §1
Chinese hamster ovary CHO-K1 cells stably expressing human A2a and A2b receptors were stored as 1ml aliquots at -150 °C in freezing medium, thawed immediately prior to assay. […] Cells (10000 cells/well) were incubated with test compounds prepared as serial dilutions. Potency (EC50) and efficacy (% of maximal response) were calculated from data fitted to a 4-parameter logistic function. The signal of 10µM NECA represented the maximal cAMP response (i.e. 100% of efficacy) produced by these cells.

A3 = target: T2, A3 (Homo sapiens, UniProt P0DMS8); assay: Human A3 receptor pharmacology: GTPγ35[S] filter assay on membranes; assay type: biochemical; parameters: purchased Perkin Elmer ES-012-M400UA; conditions: average (SD)
T2 sequence (P0DMS8 1-318): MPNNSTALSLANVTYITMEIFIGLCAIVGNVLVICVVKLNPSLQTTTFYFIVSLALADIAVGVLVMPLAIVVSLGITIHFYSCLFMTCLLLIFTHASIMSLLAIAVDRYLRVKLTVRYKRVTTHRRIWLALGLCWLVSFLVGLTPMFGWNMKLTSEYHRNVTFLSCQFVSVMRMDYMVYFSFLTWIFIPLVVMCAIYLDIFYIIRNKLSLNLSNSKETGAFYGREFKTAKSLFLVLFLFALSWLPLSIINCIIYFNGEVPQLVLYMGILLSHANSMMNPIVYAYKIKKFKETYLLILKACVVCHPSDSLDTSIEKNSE
Description: as §1
A3 receptor Gi coupling was measured by GTPγ ^35[S] filter assay using membrane from Perkin Elmer (ES-012-M400UA). Membranes (7.5μg/ml final concentration) were incubated with substances in serial dilutions (50mM Hepes, pH 7.4, 5mM MgCl2, 100mM NaCl, 0.01% BSA, 100μM DTT and 25μM GDP) including 1nM of GTPγ ^35[S] (Perkin Elmer - NEG030H) for 2h in room temperature in the assay plate (Corning – 3365). […] After adding 50µl scintillant/well, sealed plates were counted. […]

Chain of A2a (P29274 whole entry): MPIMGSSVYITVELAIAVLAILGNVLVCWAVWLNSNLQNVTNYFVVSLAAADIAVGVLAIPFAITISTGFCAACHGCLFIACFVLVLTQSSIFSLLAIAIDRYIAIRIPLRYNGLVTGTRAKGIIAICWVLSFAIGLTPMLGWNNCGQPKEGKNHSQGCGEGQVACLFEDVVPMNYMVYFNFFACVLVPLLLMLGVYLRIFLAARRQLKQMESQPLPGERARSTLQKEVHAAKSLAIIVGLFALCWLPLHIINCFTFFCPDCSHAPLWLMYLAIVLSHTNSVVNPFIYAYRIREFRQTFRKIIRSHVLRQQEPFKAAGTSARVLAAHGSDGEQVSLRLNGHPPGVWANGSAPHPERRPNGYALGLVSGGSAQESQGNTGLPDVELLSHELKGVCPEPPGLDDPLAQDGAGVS

logD at 10 min [1]: < -1
Effect in binding assay, A2a (A2a): ~100%
pEC50 ([2]; Rattus norvegicus, read-out: EC50, inhibition of LPS stimulated TNFα release in rat splenocytes): 9.22
pIC50 ([2]; LPS-stimulated TNFα release, rat splenocytes, average (SD)): 9.22
pEC50 (human A2b receptors): 5.44
pEC50 (A3): 5.18
SMILES: CCNC(=O)[C@H]1O[C@@H](n2cnc3c(NC(CC)CC)nc(NCCNC(=O)Nc4cc[n+](C)cc4)nc32)[C@H](O)[C@@H]1O [Compound 2, (2S,3S,4R,5R)-N-ethyl-5-[6-(1-ethylpropylamino)-2-[2-[(1-methylpyridin-1-ium-4-yl)carbamoylamino]ethylamino]purin-9-yl]-3,4-dihydroxy-tetrahydrofuran-2-carboxamide]
Emax ([2]; LPS-stimulated TNFα release, rat splenocytes, average (SD), read-out: rTNFα splenocytes Intrinsic activity): 57.4%
